The series can be described thus: Visual examination of physical appearance and mixing of drug-loaded silicone polymer matrix test samples. The settings on record: 15% and 20% Travoprost test samples. In kind it is physicochemical. The source says: To test the loading capacity of a silicone elastomer polymer matrix for a prostaglandin analogue, polymer matrix with different amounts and types of a prostaglandin analogue were made and the physical and mechanical properties of the resulting polymerized drug-loaded matrix were characterized (Tables 1-3). These polymer matrix test samples were made by mixing together a prostaglandin analogue, a liquid cyclic vinyl siloxane elastomer, a crosslinker, and a catalyst using a high-speed mixer and then heated the capped container at 70° C. for 24 hours to cure the mixture. A filler, such as a fumed silica, was also used to provide sufficient mechanical strength to the polymerized matrix. In addition, an inhibitor was used to slow the crosslinking reaction to a workable rate. The resulting thin-disc-shaped drug-loaded polymer matrix was allowed to cool to room temperature and then placed in 4° C. for 24 hours to increase stiffness of the material. The physical appearance of each drug-loaded polymer matrix test sample was examined visually and its mechanical properties analyzed using a durometer.

Regarding `CC(C)OC(=O)CCC/C=C\C[C@@H]1[C@@H](/C=C/[C@@H](O)COc2cccc(C(F)(F)F)c2)[C@H](O)C[C@@H]1O` [Travoprost], the “physical examination of test samples” value was “exhibited more elasticity but had surfaces with tacky attributes and a consistency that was not fully homogeneous”.
